Source: PubChem BioAssay (NCI)
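Results reflect a 48-hour exposure of cells in 96-well plates to compound at five concentrations. TGI marks complete inhibition of growth.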

Assays:
Assay in all cases: NCI-60 cell line screen, 48 h
NCI-H460 lung = test system: NCI-H460 lung
U251 CNS = test system: U251 CNS
SN12C renal = test system: SN12C renal
MALME-3M melanoma = test system: MALME-3M melanoma
SK-OV-3 ovarian = test system: SK-OV-3 ovarian
K-562 leukemia = test system: K-562 leukemia
HT29 colon = test system: HT29 colon
UO-31 renal = test system: UO-31 renal
786-0 renal = test system: 786-0 renal
RXF 393 renal = test system: RXF 393 renal
OVCAR-5 ovarian = test system: OVCAR-5 ovarian
XF 498 CNS = test system: XF 498 CNS
SF-295 CNS = test system: SF-295 CNS
SNB-19 CNS = test system: SNB-19 CNS
SNB-78 CNS = test system: SNB-78 CNS
SW-620 colon = test system: SW-620 colon
CAKI-1 renal = test system: CAKI-1 renal
HOP-92 NSCLC = test system: HOP-92 NSCLC
IGROV1 ovarian = test system: IGROV1 ovarian
SNB-75 CNS = test system: SNB-75 CNS
HCT-116 colon = test system: HCT-116 colon
KM20L2 colon = test system: KM20L2 colon
LOX IMVI melanoma = test system: LOX IMVI melanoma
DMS 273 small cell lung = test system: DMS 273 small cell lung
SK-MEL-2 melanoma = test system: SK-MEL-2 melanoma
UACC-257 melanoma = test system: UACC-257 melanoma
COLO 205 colon = test system: COLO 205 colon
SF-539 CNS = test system: SF-539 CNS
HCT-15 colon = test system: HCT-15 colon
ACHN renal = test system: ACHN renal
RXF-631 renal = test system: RXF-631 renal
A498 renal = test system: A498 renal
HL-60(TB) leukemia = test system: HL-60(TB) leukemia
NCI-H226 lung = test system: NCI-H226 lung
DMS 114 small cell lung = test system: DMS 114 small cell lung
UACC-62 melanoma = test system: UACC-62 melanoma
LXFL 529 NSCLC = test system: LXFL 529 NSCLC
OVCAR-3 ovarian = test system: OVCAR-3 ovarian
NCI-H23 lung = test system: NCI-H23 lung
CCRF-CEM leukemia = test system: CCRF-CEM leukemia
RPMI-8226 leukemia = test system: RPMI-8226 leukemia
OVCAR-8 ovarian = test system: OVCAR-8 ovarian
DLD-1 colon = test system: DLD-1 colon
M14 melanoma = test system: M14 melanoma
NCI-H522 lung = test system: NCI-H522 lung
EKVX NSCLC = test system: EKVX NSCLC
HOP-62 NSCLC = test system: HOP-62 NSCLC
SK-MEL-28 melanoma = test system: SK-MEL-28 melanoma
A549 NSCLC = test system: A549 NSCLC
HOP-18 NSCLC = test system: HOP-18 NSCLC
M19-MEL melanoma = test system: M19-MEL melanoma
SF-268 CNS = test system: SF-268 CNS
KM12 colon = test system: KM12 colon
SK-MEL-5 melanoma = test system: SK-MEL-5 melanoma
OVCAR-4 ovarian = test system: OVCAR-4 ovarian
MOLT-4 leukemia = test system: MOLT-4 leukemia
TK-10 renal = test system: TK-10 renal
HCC-2998 colon = test system: HCC-2998 colon
SR leukemia = test system: SR leukemia

O=c1[nH]cc(C(F)(C(F)(F)F)C(F)(F)F)c(=O)[nH]1 was tested, and the TGI (NCI-H460 lung) was > 100 µM, the TGI (U251 CNS) was > 100 µM and the TGI (SN12C renal) was > 100 µM. For the same molecule, the TGI (MALME-3M melanoma) was > 100 µM, the TGI (SK-OV-3 ovarian) was > 100 µM and the TGI (K-562 leukemia) was > 100 µM. The TGI (HT29 colon) was > 100 µM, the TGI (UO-31 renal) was > 100 µM and the TGI (786-0 renal) was > 100 µM. The TGI (RXF 393 renal) was > 100 µM, the TGI (OVCAR-5 ovarian) was > 100 µM and the TGI (XF 498 CNS) was > 100 µM. For the same molecule, the TGI (SF-295 CNS) was > 100 µM, the TGI (SNB-19 CNS) was > 100 µM and the TGI (SNB-78 CNS) was > 100 µM. The TGI (SW-620 colon) was > 100 µM, the TGI (CAKI-1 renal) was > 100 µM and the TGI (HOP-92 NSCLC) was > 100 µM. For the same molecule, the TGI (IGROV1 ovarian) was > 100 µM, the TGI (SNB-75 CNS) was > 100 µM and the TGI (HCT-116 colon) was > 100 µM. The TGI (KM20L2 colon) was > 100 µM, the TGI (LOX IMVI melanoma) was > 100 µM and the TGI (DMS 273 small cell lung) was > 100 µM. For the same molecule, the TGI (SK-MEL-2 melanoma) was > 100 µM, the TGI (UACC-257 melanoma) was > 100 µM and the TGI (COLO 205 colon) was > 100 µM. For the same molecule, the TGI (SF-539 CNS) was > 100 µM, the TGI (HCT-15 colon) was > 100 µM and the TGI (ACHN renal) was > 100 µM. The TGI (RXF-631 renal) was > 100 µM, the TGI (A498 renal) was > 100 µM and the TGI (HL-60(TB) leukemia) was > 100 µM. For the same molecule, the TGI (NCI-H226 lung) was > 100 µM, the TGI (DMS 114 small cell lung) was > 100 µM and the TGI (UACC-62 melanoma) was > 100 µM. For the same molecule, the TGI (LXFL 529 NSCLC) was > 100 µM, the TGI (OVCAR-3 ovarian) was > 100 µM and the TGI (NCI-H23 lung) was > 100 µM. For the same molecule, the TGI (CCRF-CEM leukemia) was > 100 µM, the TGI (RPMI-8226 leukemia) was > 100 µM and the TGI (OVCAR-8 ovarian) was > 100 µM. For the same molecule, the TGI (DLD-1 colon) was > 100 µM, the TGI (M14 melanoma) was > 100 µM and the TGI (NCI-H522 lung) was > 100 µM. For the same molecule, the TGI (EKVX NSCLC) was > 100 µM, the TGI (HOP-62 NSCLC) was > 100 µM and the TGI (SK-MEL-28 melanoma) was > 100 µM. For the same molecule, the TGI (A549 NSCLC) was > 100 µM, the TGI (HOP-18 NSCLC) was > 100 µM and the TGI (M19-MEL melanoma) was > 100 µM. The TGI (SF-268 CNS) was > 100 µM, the TGI (KM12 colon) was > 100 µM and the TGI (SK-MEL-5 melanoma) was > 100 µM. The TGI (OVCAR-4 ovarian) was > 100 µM, the TGI (MOLT-4 leukemia) was > 100 µM and the TGI (TK-10 renal) was > 100 µM.
In the case of COC(=O)C(=O)C(C(=O)C(=O)Nc1cc(Cl)c(Cl)cc1Cl)c1nc2ccc([N+](=O)[O-])cc2[nH]c1=O (configuration not stated), the TGI (U251 CNS) is reported as > 100 µM, the TGI (SN12C renal) is reported as > 100 µM and the TGI (MALME-3M melanoma) is reported as > 100 µM. The TGI (SK-OV-3 ovarian) was > 100 µM, the TGI (K-562 leukemia) was > 100 µM and the TGI (UO-31 renal) was > 100 µM. The TGI (786-0 renal) was > 100 µM, the TGI (RXF 393 renal) was > 100 µM and the TGI (OVCAR-5 ovarian) was > 100 µM. For the same molecule, the TGI (XF 498 CNS) was > 100 µM, the TGI (SF-295 CNS) was > 100 µM and the TGI (SNB-19 CNS) was > 100 µM. For the same molecule, the TGI (SNB-78 CNS) was > 100 µM, the TGI (SW-620 colon) was > 100 µM and the TGI (CAKI-1 renal) was > 100 µM. The TGI (IGROV1 ovarian) was > 100 µM, the TGI (HCT-116 colon) was > 100 µM and the TGI (KM20L2 colon) was > 100 µM. The TGI (LOX IMVI melanoma) was > 100 µM, the TGI (DMS 273 small cell lung) was > 100 µM and the TGI (SK-MEL-2 melanoma) was > 100 µM. The TGI (UACC-257 melanoma) was > 100 µM, the TGI (COLO 205 colon) was > 100 µM and the TGI (SF-539 CNS) was > 100 µM. The TGI (HCT-15 colon) was > 100 µM, the TGI (ACHN renal) was > 100 µM and the TGI (HCC-2998 colon) was > 100 µM. For the same molecule, the TGI (RXF-631 renal) was > 100 µM, the TGI (NCI-H226 lung) was > 100 µM and the TGI (DMS 114 small cell lung) was > 100 µM. For the same molecule, the TGI (UACC-62 melanoma) was > 100 µM, the TGI (LXFL 529 NSCLC) was > 100 µM and the TGI (NCI-H23 lung) was > 100 µM. The TGI (SR leukemia) was > 100 µM, the TGI (CCRF-CEM leukemia) was > 100 µM and the TGI (RPMI-8226 leukemia) was > 100 µM. For the same molecule, the TGI (OVCAR-8 ovarian) was > 100 µM, the TGI (M14 melanoma) was > 100 µM and the TGI (NCI-H522 lung) was > 100 µM. For the same molecule, the TGI (EKVX NSCLC) was > 100 µM, the TGI (SK-MEL-28 melanoma) was > 100 µM and the TGI (A549 NSCLC) was > 100 µM. For the same molecule, the TGI (HOP-18 NSCLC) was 95.2 µM, the TGI (M19-MEL melanoma) was > 100 µM and the TGI (SF-268 CNS) was > 100 µM. The TGI (KM12 colon) was > 100 µM, the TGI (SK-MEL-5 melanoma) was > 100 µM and the TGI (OVCAR-4 ovarian) was > 100 µM. For the same molecule, the TGI (MOLT-4 leukemia) was > 100 µM and the TGI (TK-10 renal) was > 100 µM.
